Test results taken from ChEMBL document CHEMBL3351593, “Potent nonimmunosuppressive cyclophilin inhibitors with improved pharmaceutical properties and decreased transporter inhibition” (J Med Chem, 2014).

Legend:
Cytochrome P450 2C8 = molecular target: T1, Cytochrome P450 2C8 (Homo sapiens, UniProt P10632); assay: Inhibition of CYP2C8 (unknown origin); type: ADME
T1 sequence (P10632 whole entry): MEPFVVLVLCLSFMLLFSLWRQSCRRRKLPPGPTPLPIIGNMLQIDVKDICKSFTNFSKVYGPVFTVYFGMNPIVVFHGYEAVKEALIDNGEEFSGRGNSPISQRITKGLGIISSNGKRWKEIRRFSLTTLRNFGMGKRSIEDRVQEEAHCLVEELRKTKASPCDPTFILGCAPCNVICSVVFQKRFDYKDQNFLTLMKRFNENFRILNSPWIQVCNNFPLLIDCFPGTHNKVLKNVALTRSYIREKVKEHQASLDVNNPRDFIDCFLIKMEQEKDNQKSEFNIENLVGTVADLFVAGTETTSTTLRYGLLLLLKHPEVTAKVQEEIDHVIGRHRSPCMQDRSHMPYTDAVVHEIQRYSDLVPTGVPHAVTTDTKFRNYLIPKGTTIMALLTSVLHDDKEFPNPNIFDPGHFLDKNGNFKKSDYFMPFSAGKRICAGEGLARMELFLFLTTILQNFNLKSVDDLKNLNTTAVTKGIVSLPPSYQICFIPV

Cytochrome P450 3A4 = Cytochrome P450 3A4 (Homo sapiens, UniProt P08684); assay: Inhibition of CYP3A4 (unknown origin); type: ADME
Chain of Cytochrome P450 3A4 (P08684 whole entry): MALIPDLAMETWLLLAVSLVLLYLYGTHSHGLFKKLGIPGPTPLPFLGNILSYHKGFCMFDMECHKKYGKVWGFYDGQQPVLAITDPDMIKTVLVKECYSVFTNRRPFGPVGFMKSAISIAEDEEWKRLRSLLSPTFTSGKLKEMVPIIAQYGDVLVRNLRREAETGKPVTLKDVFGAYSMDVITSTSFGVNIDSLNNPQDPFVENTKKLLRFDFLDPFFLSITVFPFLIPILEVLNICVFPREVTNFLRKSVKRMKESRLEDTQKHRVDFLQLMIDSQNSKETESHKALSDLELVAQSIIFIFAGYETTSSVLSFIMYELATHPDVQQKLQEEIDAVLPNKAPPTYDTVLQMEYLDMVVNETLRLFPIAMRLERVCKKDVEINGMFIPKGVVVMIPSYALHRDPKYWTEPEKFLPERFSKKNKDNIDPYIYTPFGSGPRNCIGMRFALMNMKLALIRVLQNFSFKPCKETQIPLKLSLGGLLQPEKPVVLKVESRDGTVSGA

C/C=C/C[C@@H](C)[C@@H](O)[C@H]1C(=O)N[C@@H](CC)C(=O)N(C)[C@H](C)C(=O)N(C)[C@@H]([C@@H](C)CN2CCN(CCOC)CC2)C(=O)N[C@@H](C(C)C)C(=O)N(C)[C@@H](CC(C)C)C(=O)N[C@@H](C)C(=O)N[C@H](C)C(=O)N(C)[C@@H](CC(C)C)C(=O)N(C)[C@@H](CC(C)C)C(=O)N(C)[C@@H](C(C)C)C(=O)N1C
IC50 (Cytochrome P450 2C8): > 40 µM | IC50 (Cytochrome P450 3A4): > 40 µM
